In one test the test system is recurrent GBM patients. Description: Multiplex immunofluorescence of FcγRIIIA on TAMs, pre-DOX and during-DOX GBM samples. Format: in vivo, human. Conditions: DOX+aPD-1 with concomitant LIPU/MB, vs tissue before treatment, 4 patients. The source says:
Multiplex immunofluorescence staining/cellular identification and phenotyping. The multiplex panel included the following unconjugated antibodies: GFAP (glioma cells), CD11c (antigen presenting cells), CD68 (pan monocyte/macrophage), CD163 (macrophage scavenger receptor), FcγRIIIA (Receptor binding the Fc region of IgG, CD16A). All antibodies were validated using conventional immunofluorescence (IF) staining in conjunction with the corresponding fluorophore and the spectral 4′,6-diamidino-2-pheynlindole (DAPI; ThermoFisher Scientific) counterstain. For optimal concentration and best signal/noise ratio all antibodies were tested at three different dilutions, starting with the manufacturer-recommended dilution (MRD), then MRD/2 and MRD/4. Secondary Alexa fluorophore 555 (ThermoFisher Scientific) and Alexa fluorophore 647 (ThermoFisher Scientific) were used at 1/200 and 1/400 dilutions respectively. […]
Slides are automatically scanned using the Lunaphore COMET™ with fluorescent high-power field scan (20× magnification microscope). […] The OME.TIFF images ware analyzed in Visiopharm software for immune populations' configuration and quantification.
All digitized images were analyzed using the Visiopharm software platform (Hørsholm, Denmark). […]

The next test deals with GL261-bearing mice. Description: Survival of GL261-bearing mice treated with liposomal DOX, aPD-1, US/MB. Format: in vivo, mouse. The procedure: Ultrasound-mediated BBB opening in mouse models.
Cell lines and implantable syngeneic murine glioma models for survival and immunophenotyping studies. Murine GL261 cell line was acquired from the National Institutes of Health. CT2A cell line was acquired from Millipore. GL261 and CT2A were cultured in Dulbecco's modified Eagle's medium (Corning) supplemented with 10% FBS (Hyclone) and 1% penicillin/streptomycin (Corning) at 37° C. in incubators with humified atmosphere of 5% CO2 and 95% air.
After injection of glioma cells, the incision was closed using 9 mm stainless steel wound clips. On day 7 and 14 after IC implantation of glioma cell lines, mice were treated with liposomal DOX obtained from the pharmacy of Northwestern Memorial Hospital. On day 7, 10, 14, and 17 after IC injection of glioma cells, mice were treated with either […] of anti-mouse PD-1 (CD279) BE0146 (BioXcell) or rat IgG2a isotype control BE0089 (BioXcell).

For a further test, the system named is CT2A. In words: H-2Kb expression in CT2A cells by flow cytometry. The conditions noted are these: similar DOX concentration range, compared to no treatment. It counts as cell-based, mouse. (In general: A flow cytometer gives signals particle by particle.)

The structures appear in SMILES notation.

For `COc1cccc2c1C(=O)c1c(O)c3c(c(O)c1C2=O)C[C@@](O)(C(=O)CO)C[C@@H]3O[C@H]1C[C@H](N)[C@H](O)[C@H](C)O1` [DOX, Doxorubicin], in the test with recurrent GBM patients, the “frequency of FcγRIIIA+ CD68+ and CD11c+ TAMs” value was “increase in the frequency”. Further, in the test with GL261-bearing mice (DOX alone vs control, P=0.04), the “percentage of CD4 IFN-γ+ TNF-α+ T cells” value is “higher percentage”. In addition, the long-term survivors result with GL261-bearing mice (GL261, anti-PD-1 antibody added to DOX plus US/MB, vs DOX plus US/MB) is listed as “same percentage of long-term survivors”. Also, in the test with CT2A, the H-2Kb expression entry is “upregulated”.

For the origin of these results see US20260124223A1, “CANCER IMMUNOTHERAPIES” (Northwestern University, priority 2022, published 2026).
